# No end group written: not given here.
# T1: human TAS1R2-WT/TAS1R3-S551N (Homo sapiens, UniProt Q7RTX0+Q8TE23, S551N)
# T1 construct: expressed in transfected cells; host or cells: HEK293T stably expressing Gα16gust44
# T1 sequence (Q8TE23 20-839): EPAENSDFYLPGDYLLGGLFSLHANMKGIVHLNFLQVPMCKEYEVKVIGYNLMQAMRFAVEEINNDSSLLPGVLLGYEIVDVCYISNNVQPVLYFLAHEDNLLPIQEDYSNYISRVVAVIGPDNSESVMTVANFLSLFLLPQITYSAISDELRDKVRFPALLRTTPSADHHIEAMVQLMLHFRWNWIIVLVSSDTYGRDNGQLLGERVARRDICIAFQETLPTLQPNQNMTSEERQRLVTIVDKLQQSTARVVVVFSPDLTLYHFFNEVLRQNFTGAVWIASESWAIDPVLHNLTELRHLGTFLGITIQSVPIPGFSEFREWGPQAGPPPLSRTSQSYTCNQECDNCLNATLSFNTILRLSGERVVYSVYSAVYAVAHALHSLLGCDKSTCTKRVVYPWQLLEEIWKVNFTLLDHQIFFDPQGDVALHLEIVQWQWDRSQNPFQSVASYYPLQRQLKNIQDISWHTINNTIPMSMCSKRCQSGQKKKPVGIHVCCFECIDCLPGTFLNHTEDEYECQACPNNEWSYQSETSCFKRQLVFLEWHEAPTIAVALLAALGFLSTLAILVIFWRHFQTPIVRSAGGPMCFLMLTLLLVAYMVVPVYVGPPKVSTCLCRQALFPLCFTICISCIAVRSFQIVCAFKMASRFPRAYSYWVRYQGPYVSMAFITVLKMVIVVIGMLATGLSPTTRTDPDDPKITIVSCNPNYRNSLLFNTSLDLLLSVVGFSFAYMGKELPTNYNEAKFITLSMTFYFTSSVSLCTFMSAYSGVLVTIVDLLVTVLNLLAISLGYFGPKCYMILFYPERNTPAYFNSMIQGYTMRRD
# T1 sequence (Q7RTX0 21-852 S551N): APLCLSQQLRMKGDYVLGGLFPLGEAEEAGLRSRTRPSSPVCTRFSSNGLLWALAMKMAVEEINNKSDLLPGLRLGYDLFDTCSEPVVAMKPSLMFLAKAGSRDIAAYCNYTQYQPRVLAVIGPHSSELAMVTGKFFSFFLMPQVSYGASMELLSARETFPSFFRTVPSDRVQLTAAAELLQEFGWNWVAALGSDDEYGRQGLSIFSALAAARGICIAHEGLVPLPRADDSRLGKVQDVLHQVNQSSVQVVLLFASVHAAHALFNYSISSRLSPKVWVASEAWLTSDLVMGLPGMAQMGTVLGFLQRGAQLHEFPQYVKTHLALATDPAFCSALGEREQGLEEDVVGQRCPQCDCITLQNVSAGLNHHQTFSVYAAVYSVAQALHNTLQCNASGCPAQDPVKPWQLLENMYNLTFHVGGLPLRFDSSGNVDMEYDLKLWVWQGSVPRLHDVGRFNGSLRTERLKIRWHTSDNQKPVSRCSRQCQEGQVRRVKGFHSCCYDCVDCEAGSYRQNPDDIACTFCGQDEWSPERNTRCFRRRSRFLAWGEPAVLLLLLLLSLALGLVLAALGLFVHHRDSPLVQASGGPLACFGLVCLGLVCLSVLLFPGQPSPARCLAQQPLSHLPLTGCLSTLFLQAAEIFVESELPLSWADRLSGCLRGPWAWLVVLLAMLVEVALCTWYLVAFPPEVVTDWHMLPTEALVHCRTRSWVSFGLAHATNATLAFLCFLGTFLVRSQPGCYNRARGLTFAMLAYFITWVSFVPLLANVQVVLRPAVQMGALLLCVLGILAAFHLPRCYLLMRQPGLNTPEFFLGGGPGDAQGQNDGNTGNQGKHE
# B1: thaumatin (protein)
# chain: ATFEIVNRCSYTVWAAASKGDAALDAGGRQLNSGESWTINVEPGTKGGKIWARTDCYFDDSGSGICKTGDCGGLLRCKRFGRPPTTLAEFSLNQYGKDYIDISNIKGFNVPMDFSPTTRGCRGVRCAADIVGQCPAKLKAPGGGCNDACTVFQTSEYCCTTGKCGPTEYSRFFKRLCPDAFSYVLDKPTTVTCPGSSNYRVTFCPTA
# modifications: Eight disulfides
# notes: sweet-tasting plant protein, E957
# Biological target: T1, human TAS1R2-WT/TAS1R3-S551N
# Assay: Calcium mobilisation assay, TAS1R2-WT with TAS1R3 variant S551N
# Type: cell-based
# Conditions: for Max ΔF/F0: maximal signal amplitude; for Max ΔF/F0 / EC50: "-": no activation
# Excerpt: The coding sequences for TAS1R2 and TAS1R3 were commercially synthesised, and the human codon was optimised for expression in human cells. The coding sequences of human TAS1R2 and TAS1R3 were subcloned and inserted into the mammalian expression vectors pcDNA6/myc-HisA and pcDNA4/myc-HisA (Invitrogen; Thermo Fisher Scientific; Illkirch, France) between the EcoRI and NotI restriction sites, generating the plasmids pcDNA6-TAS1R2 and pcDNA4-TAS1R3, respectively. To increase protein expression in mammalian cells, an upstream start codon was used, which was a sequence called MAX, corresponding to the QBI SP163 element also described in pcDNA4-HisMax (Invitrogen; Thermo Fisher Scientific; Illkirch, France). To measure the expression level of the receptor by immunohistochemistry, we used the FLAG sequence ([…]) in the C-terminal position, which encodes the FLAG tag epitope. SNP variants of TAS1R2 and TAS1R3 were constructed based on […], respectively, using site-directed mutagenesis (Genewiz; Leipzig, Germany).
# The HEK293T cells were kindly provided by Jay P. Slack (Givaudan Flavors Corporation; Cincinnati, OH, USA). HEK293T cells stably transfected with Gα16gust44 [43, 67] were seeded in poly-D-lysine-coated clear-bottom black 96-well plates (0.35 × 10^5 cells/well) in high-glucose DMEM supplemented with 2 mM GlutaMAX, 10% dialysed foetal bovine serum with penicillin/streptomycin and G418 (400 μg/mL) at 37 °C and 6.3% CO2 in a humidified atmosphere as previously reported. […] As a negative control, HEK293T cells were mock-transfected with the empty expression vector. After a further 24 h of incubation, the HEK293T cells were washed with C1 buffer (130 mM NaCl, 5 mM KCl, 10 mM HEPES pH 7.4 and 2 mM CaCl2). The 96-well plates containing the cells were then stimulated with sweet-tasting compounds. […] Different concentration ranges were tested depending on the sweet compound injected. The Ca^2+ changes were expressed as fractional changes in fluorescent light intensity: ΔF/F = (F − F0)/F0, where F was the fluorescent light intensity at each point, and F0 was the value of emitted fluorescent light prior to stimulus application. To calculate dose–response relationships, the changes in fluorescence upon stimulus application were averaged, mock-subtracted and baseline-corrected. The dose–response data obtained were adjusted using a 4-parameter logistic equation. The half-maximal effective concentrations (EC50 values) and maximal signal amplitudes were calculated using SigmaPlot software (version 15.0) (Systat Software; San Jose, CA, USA).
# For in vitro calcium mobilisation assay performed on hTAS1R2-SNPs, hTAS1R3-SNPs and mTAS1R3-I60T, 6 to 7 concentrations were tested for each sweet compound, plus buffer alone. All concentration–receptor combinations were measured in duplicate, and each experiment was repeated at least 4 times (8 wells/concentration). Results were expressed for each concentration as ΔF/F mean ± SEM and represented as dose–response curves.
Molecule,R1 = Variant EC50/WT EC50,Max ΔF/F0,EC50 [µM]
"C[C@H](CC[C@@H](O[C@@H]1O[C@H](CO[C@@H]2O[C@H](CO)[C@@H](O)[C@H](O)[C@H]2O)[C@@H](O)[C@H](O)[C@H]1O[C@@H]1O[C@H](CO)[C@@H](O)[C@H](O)[C@H]1O)C(C)(C)O)[C@H]1CC[C@@]2(C)[C@@H]3CC=C4[C@@H](CC[C@H](O[C@@H]5O[C@H](CO[C@@H]6O[C@H](CO)[C@@H](O)[C@H](O)[C@H]6O)[C@@H](O)[C@H](O)[C@H]5O)C4(C)C)[C@]3(C)[C@H](O)C[C@]12C [Mogroside V, mogroside V]",3.6,0.03,
"brazzein (QDKCKKVYENYPVSKCQLANQCNYDCKLDKHARSGECFYDEKRNLQCICDYCEY; ends and bridges not checked; cysteine pairing not given here; UniProt P56552 1-54, looked up) [sweet-tasting protein obtained by recombinant production using the yeast Pichia pastoris]",21.1,0.21 ± 0.21,
"C=C(C)[C@@H]1CC=C(/C=N/O)CC1 [Perillartine, perillartine]",3.6,0.52 ± 0.04,49.2 ± 13.6
thaumatin,1.7,0.25 ± 0.01,
B1,,,17.4 ± 2.2

# From paper PMC11945486, “TAS1R2/TAS1R3 Single-Nucleotide Polymorphisms Affect Sweet Taste Receptor Activation by Sweeteners: The SWEET Project” (Nutrients, 2025)
